Laboratory results from PubChem BioAssay (NCI).
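Results reflect a 48-hour exposure of cells in 96-well plates to compound at five concentrations. GI50 is the concentration that inhibits growth by half. TGI: total growth inhibition.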

Experiments:
Experiment in all cases: inhibition of tumour cell growth, NCI panel, 48 h
[1] = system: CAKI-1 renal
[2] = system: HL-60(TB) leukemia
[3] = system: SR leukemia
[4] = system: HCC-2998 colon
[5] = system: SF-539 CNS
[6] = system: PC-3 prostate
[7] = system: UACC-257 melanoma
[8] = system: MDA-MB-231 breast
[9] = system: SK-MEL-2 melanoma
[10] = system: HT29 colon
[11] = system: HCT-15 colon
[12] = system: RXF 393 renal
[13] = system: MCF7 breast
[14] = system: MOLT-4 leukemia
[15] = system: MALME-3M melanoma
[16] = system: SF-295 CNS
[17] = system: SNB-19 CNS
[18] = system: NCI-H460 lung
[19] = system: NCI/ADR-RES ovarian
[20] = system: CCRF-CEM leukemia
[21] = system: NCI-H23 lung
[22] = system: 786-0 renal
[23] = system: OVCAR-4 ovarian
[24] = system: NCI-H522 lung
[25] = system: EKVX NSCLC
[26] = system: HS 578T breast
[27] = system: U251 CNS
[28] = system: SK-MEL-28 melanoma
[29] = system: SK-OV-3 ovarian
[30] = system: SK-MEL-5 melanoma
[31] = system: SF-268 CNS
[32] = system: ACHN renal
[33] = system: TK-10 renal
[34] = system: UO-31 renal
[35] = system: RPMI-8226 leukemia
[36] = system: COLO 205 colon
[37] = system: K-562 leukemia
[38] = system: HOP-92 NSCLC
[39] = system: MDA-MB-468 breast
[40] = system: IGROV1 ovarian
[41] = system: DU-145 prostate
[42] = system: OVCAR-5 ovarian
[43] = system: KM12 colon
[44] = system: HOP-62 NSCLC
[45] = system: HCT-116 colon
[46] = system: LOX IMVI melanoma
[47] = system: BT-549 breast
[48] = system: SW-620 colon
[49] = system: A498 renal
[50] = system: T-47D breast
[51] = system: OVCAR-3 ovarian
[52] = system: UACC-62 melanoma
[53] = system: NCI-H226 lung
[54] = system: SN12C renal
[55] = system: A549 NSCLC
[56] = system: OVCAR-8 ovarian

In the case of Cc1ccc(/C=C(\C#N)n2nnc3c(F)cccc32)cc1, the GI50 [1] is reported as 0.152 µM, the TGI [1] is reported as > 100 µM and the GI50 [2] is reported as 0.196 µM. The TGI [2] was 0.519 µM, the GI50 [3] was 0.254 µM and the TGI [3] was 4.31 µM. It also gave a GI50 [4] of 0.971 µM, a TGI [4] of 3.24 µM and a GI50 [5] of 0.2 µM. The TGI [5] was 0.467 µM, the GI50 [6] was 0.328 µM and the TGI [6] was > 38.9 µM. For the same compound, the GI50 [7] was 0.894 µM, the TGI [7] was > 100 µM and the GI50 [8] was 0.426 µM. The TGI [8] was 2.77 µM, the GI50 [9] was 0.302 µM and the TGI [9] was > 100 µM. The GI50 [10] was 0.426 µM, the TGI [10] was > 100 µM and the GI50 [11] was 0.319 µM. The TGI [11] was > 100 µM, the GI50 [12] was 0.237 µM and the TGI [12] was 0.735 µM. The GI50 [13] was 1.53 µM, the TGI [13] was > 100 µM and the GI50 [14] was 0.473 µM. The TGI [14] was 4.4 µM, the GI50 [15] was 0.404 µM and the TGI [15] was > 96.2 µM. For the same compound, the GI50 [16] was 0.289 µM, the TGI [16] was 50.8 µM and the GI50 [17] was 0.718 µM. For the same compound, the TGI [17] was > 100 µM, the GI50 [18] was 0.376 µM and the TGI [18] was 3.3 µM. It also gave a GI50 [19] of 0.111 µM, a TGI [19] of 0.343 µM and a GI50 [20] of 0.285 µM. The TGI [20] was 1.66 µM, the GI50 [21] was 0.523 µM and the TGI [21] was 29 µM. It also gave a GI50 [22] of 0.424 µM, a TGI [22] of 15.8 µM and a GI50 [23] of 2.79 µM. For the same compound, the TGI [23] was > 100 µM, the GI50 [24] was 0.0844 µM and the TGI [24] was 0.36 µM. The GI50 [25] was 1.56 µM, the TGI [25] was > 94.1 µM and the GI50 [26] was 0.379 µM. For the same compound, the TGI [26] was > 100 µM, the GI50 [27] was 0.387 µM and the TGI [27] was > 42.7 µM. For the same compound, the GI50 [28] was 0.825 µM, the TGI [28] was > 100 µM and the GI50 [29] was 0.585 µM. The TGI [29] was 46.2 µM, the GI50 [30] was 0.399 µM and the TGI [30] was 4.36 µM. The GI50 [31] was 0.765 µM, the TGI [31] was > 61.5 µM and the GI50 [32] was 0.555 µM. The TGI [32] was > 100 µM, the GI50 [33] was 2.7 µM and the TGI [33] was 7.79 µM. The GI50 [34] was 0.324 µM, the TGI [34] was > 100 µM and the GI50 [35] was 0.296 µM. For the same compound, the TGI [35] was 1.71 µM, the GI50 [36] was 0.294 µM and the TGI [36] was 0.739 µM. It also gave a GI50 [37] of 0.0624 µM, a GI50 [38] of 0.0797 µM and a TGI [38] of 1.68 µM. It also gave a GI50 [39] of 1.53 µM, a TGI [39] of 8.71 µM and a GI50 [40] of 0.507 µM. The TGI [40] was 9.15 µM, the GI50 [41] was 0.386 µM and the TGI [41] was > 100 µM. It also gave a GI50 [42] of 0.421 µM, a TGI [42] of 5.24 µM and a GI50 [43] of 0.47 µM. For the same compound, the TGI [43] was > 100 µM, the GI50 [44] was 0.398 µM and the TGI [44] was 6.29 µM. The GI50 [45] was 0.285 µM, the TGI [45] was > 35.8 µM and the GI50 [46] was 0.349 µM. The TGI [46] was 2.3 µM, the GI50 [47] was 0.365 µM and the TGI [47] was 2.49 µM. The GI50 [48] was 0.25 µM, the TGI [48] was > 100 µM and the GI50 [49] was 10.8 µM. The TGI [49] was 87 µM, the GI50 [50] was 1.63 µM and the TGI [50] was > 100 µM. For the same compound, the GI50 [51] was 0.254 µM, the TGI [51] was 0.941 µM and the GI50 [52] was 0.273 µM. For the same compound, the TGI [52] was 27 µM, the GI50 [53] was 0.936 µM and the TGI [53] was > 62.9 µM. It also gave a GI50 [54] of 0.416 µM, a TGI [54] of 2.25 µM and a GI50 [55] of 0.504 µM. For the same compound, the TGI [55] was > 100 µM, the GI50 [56] was 0.328 µM and the TGI [56] was 1.69 µM.
